In ChEMBL document CHEMBL1201862, “PubChem BioAssay data set” (2004):
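Assay format: 96-well plates, 48-hour exposure. GI50 is the concentration that inhibits growth by half.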 Calls of active or inactive are those of the source. Rule as the data show it: active = GI50 up to about 1.1 µM and inactive = higher.

What was measured:
Test in all cases: inhibition of tumour cell growth, NCI panel, 48 h
Malme-3M = system: Malme-3M
A498 = system: A498
SN12C = system: SN12C
UO-31 = system: UO-31
SW-620 = system: SW-620
SF-539 = system: SF-539
HCC 2998 = system: HCC 2998
MOLT-4 = system: MOLT-4
SK-OV-3 = system: SK-OV-3
TK-10 = system: TK-10
SK-MEL-2 = system: SK-MEL-2
M19-MEL = system: M19-MEL
OVCAR-5 = system: OVCAR-5
RPMI-8226 = system: RPMI-8226
SNB-75 = system: SNB-75
DMS-114 = system: DMS-114

Measured: GI50

Cc1ccc(C2=C(c3ccccc3)C(=O)C(c3ccccc3)=C2c2ccc(C)cc2)cc1
inactive: Malme-3M 31 µM | A498 > 100 µM | SN12C 66.5 µM | UO-31 > 100 µM | SW-620 37.9 µM | SF-539 18.3 µM | HCC 2998 > 100 µM | MOLT-4 14.5 µM | SK-OV-3 > 100 µM | TK-10 45.6 µM | SK-MEL-2 6.79 µM | M19-MEL 41.1 µM | OVCAR-5 > 100 µM | RPMI-8226 29.1 µM | SNB-75 87.3 µM

CCOC(=O)Cn1c(=O)n(C)c(=O)c2c1ncn2Cc1ccccc1
inactive: Malme-3M > 100 µM | A498 > 100 µM | SN12C > 100 µM | UO-31 > 100 µM | SW-620 > 100 µM | SF-539 > 100 µM | MOLT-4 > 100 µM | SK-OV-3 > 100 µM | TK-10 > 100 µM | SK-MEL-2 > 100 µM | DMS-114 > 100 µM | M19-MEL > 100 µM | OVCAR-5 > 100 µM | RPMI-8226 > 100 µM | SNB-75 > 100 µM

CC(C)=Cc1cc(C(=O)NCCNC(=O)c2cc(C=C(C)C)nc(NC#N)n2)nc(NC#N)n1
inactive: Malme-3M > 100 µM | A498 > 100 µM | SN12C > 100 µM | UO-31 > 100 µM | SW-620 > 100 µM | SF-539 > 100 µM | HCC 2998 > 100 µM | MOLT-4 > 100 µM | SK-OV-3 > 100 µM | TK-10 > 100 µM | DMS-114 > 100 µM | M19-MEL > 100 µM | OVCAR-5 > 100 µM | RPMI-8226 > 100 µM | SNB-75 > 100 µM

CC(Oc1ccc(OCC2CCCCC2)cc1)C(=O)NCCO (stereo not given)
inactive: Malme-3M > 100 µM | A498 48 µM | SN12C > 100 µM | UO-31 56.4 µM | SF-539 > 100 µM | MOLT-4 > 100 µM | SK-OV-3 > 100 µM | TK-10 > 100 µM | SK-MEL-2 > 100 µM | DMS-114 39.8 µM | M19-MEL > 100 µM | SNB-75 > 100 µM

CCOC(=O)C(/C(=N/NC(=O)OC)C(=O)Nc1ccc(C(C)=O)cc1)c1cnc2ccccc2n1 (stereo not given)
inactive: Malme-3M > 100 µM | A498 > 100 µM | SN12C > 100 µM | UO-31 > 100 µM | SW-620 > 100 µM | SF-539 > 100 µM | HCC 2998 > 100 µM | SK-OV-3 > 100 µM | TK-10 > 100 µM | DMS-114 > 100 µM | M19-MEL > 100 µM | OVCAR-5 > 100 µM | SNB-75 90.8 µM

O=C1CCN(CCC(F)(F)C(F)(F)C(F)(F)C(F)(F)F)C(=S)N1
inactive: Malme-3M > 100 µM | SN12C > 100 µM | UO-31 > 100 µM | SW-620 > 100 µM | SF-539 > 100 µM | MOLT-4 > 100 µM | TK-10 > 100 µM | SK-MEL-2 > 100 µM | DMS-114 > 100 µM | M19-MEL > 100 µM | OVCAR-5 > 100 µM | RPMI-8226 > 100 µM | SNB-75 > 100 µM

Cc1[nH]nc2c1C(=O)C=C(N(CCO)c1ccccc1)C2=O
inactive: Malme-3M > 100 µM | SN12C > 100 µM | UO-31 > 100 µM | SW-620 > 100 µM | SF-539 > 100 µM | HCC 2998 > 100 µM | MOLT-4 > 100 µM | SK-OV-3 > 100 µM | TK-10 > 100 µM | DMS-114 > 100 µM | M19-MEL > 100 µM | RPMI-8226 > 100 µM | SNB-75 88.9 µM

COC(=O)c1cc(OC(C)=O)c2c(OC)ccc(OC)c2c1
inactive: Malme-3M > 100 µM | SN12C > 100 µM | SW-620 > 100 µM | SF-539 > 100 µM | MOLT-4 60.8 µM | SK-OV-3 > 100 µM | TK-10 > 100 µM | SK-MEL-2 > 100 µM | DMS-114 > 100 µM | M19-MEL > 100 µM | OVCAR-5 > 100 µM | RPMI-8226 > 100 µM | SNB-75 39.5 µM

CC(C)=CC(=O)Cc1nc2cc(C)c(C)cc2[nH]c1=O
inactive: Malme-3M > 100 µM | A498 > 100 µM | SN12C > 100 µM | UO-31 75 µM | SW-620 > 100 µM | SF-539 > 100 µM | HCC 2998 > 100 µM | MOLT-4 > 100 µM | SK-OV-3 > 100 µM | TK-10 > 100 µM | SK-MEL-2 > 100 µM | M19-MEL > 100 µM | OVCAR-5 > 100 µM | RPMI-8226 > 100 µM | SNB-75 > 100 µM

C=CCCc1cc(OC)ccc1CN(C)C(C)(C)CO
inactive: Malme-3M > 100 µM | A498 > 100 µM | SN12C > 100 µM | SW-620 > 100 µM | SF-539 > 100 µM | TK-10 > 100 µM | SK-MEL-2 > 100 µM | DMS-114 > 100 µM | M19-MEL > 100 µM | OVCAR-5 > 100 µM | RPMI-8226 > 100 µM | SNB-75 85.7 µM

O=C(CCc1n[nH]c(=S)o1)Nc1ccccc1C(F)(F)F
inactive: Malme-3M > 100 µM | A498 > 100 µM | SN12C > 100 µM | UO-31 > 100 µM | SW-620 18.2 µM | SF-539 > 100 µM | HCC 2998 > 100 µM | MOLT-4 > 100 µM | SK-OV-3 > 100 µM | TK-10 > 100 µM | DMS-114 > 100 µM | M19-MEL > 100 µM | OVCAR-5 > 100 µM | RPMI-8226 25.9 µM | SNB-75 > 100 µM

COc1cc(C(=O)Nc2cccc3ccccc23)c(Br)c(OC)c1OC
inactive: Malme-3M 67.6 µM | SN12C > 100 µM | UO-31 31.4 µM | SW-620 > 100 µM | SF-539 > 100 µM | HCC 2998 > 100 µM | MOLT-4 39.7 µM | SK-OV-3 > 100 µM | TK-10 > 100 µM | SK-MEL-2 > 100 µM | DMS-114 30.7 µM | M19-MEL 58.6 µM | OVCAR-5 64.4 µM | RPMI-8226 42.8 µM | SNB-75 62.2 µM

CC(=O)NNc1nc(C)c(C(/C=C/c2ccc(Cl)cc2)=N/NC(=S)NN)s1
inactive: Malme-3M > 100 µM | A498 > 100 µM | SN12C > 100 µM | UO-31 > 100 µM | SW-620 > 100 µM | SF-539 > 100 µM | MOLT-4 > 100 µM | SK-OV-3 > 100 µM | TK-10 > 100 µM | SK-MEL-2 > 100 µM | DMS-114 > 100 µM | M19-MEL > 100 µM | OVCAR-5 > 100 µM | RPMI-8226 > 100 µM | SNB-75 > 100 µM

Cn1c2c(c3ccccc31)CCN(CCCN1CCN(c3cccc(Cl)c3)CC1)C2=O
inactive: A498 3.05 µM | SN12C 21.4 µM | UO-31 11 µM | SW-620 28 µM | SF-539 18.1 µM | MOLT-4 11.6 µM | SK-OV-3 38.5 µM | TK-10 27.8 µM | DMS-114 14.2 µM | M19-MEL 20.2 µM | RPMI-8226 12.2 µM

O=c1c2cccc3cccc(c4n1CCCN=4)c32
inactive: Malme-3M > 100 µM | A498 > 100 µM | SN12C > 100 µM | UO-31 80.4 µM | SW-620 92.5 µM | SF-539 > 100 µM | MOLT-4 35.7 µM | SK-OV-3 > 100 µM | TK-10 47.5 µM | SK-MEL-2 > 100 µM | DMS-114 > 100 µM | M19-MEL > 100 µM | OVCAR-5 88.1 µM | RPMI-8226 > 100 µM | SNB-75 > 100 µM

CC1OC(=O)N(CCCC=C2SCCCS2)C1=O (stereo not given)
inactive: Malme-3M > 100 µM | A498 > 100 µM | SN12C > 100 µM | UO-31 > 100 µM | SW-620 > 100 µM | SF-539 > 100 µM | MOLT-4 > 100 µM | SK-OV-3 > 100 µM | TK-10 > 100 µM | SK-MEL-2 > 100 µM | DMS-114 > 100 µM | M19-MEL > 100 µM | OVCAR-5 > 100 µM | RPMI-8226 > 100 µM | SNB-75 > 100 µM

CC1=NN(C(=O)c2ccc(Cl)cc2)C(=O)/C1=C/c1ccc(Cl)cc1
inactive: Malme-3M > 100 µM | A498 > 100 µM | SN12C > 100 µM | UO-31 > 100 µM | SW-620 > 100 µM | SF-539 > 100 µM | HCC 2998 > 100 µM | MOLT-4 > 100 µM | SK-OV-3 > 100 µM | TK-10 > 100 µM | SK-MEL-2 > 100 µM | DMS-114 > 100 µM | M19-MEL > 100 µM | OVCAR-5 > 100 µM | RPMI-8226 > 100 µM

OCCCCn1cnc2c(O)ncnc21
inactive: Malme-3M > 100 µM | A498 > 100 µM | SN12C > 100 µM | UO-31 > 100 µM | SW-620 > 100 µM | SF-539 > 100 µM | HCC 2998 > 100 µM | MOLT-4 > 100 µM | TK-10 > 100 µM | DMS-114 > 100 µM | M19-MEL > 100 µM | OVCAR-5 > 100 µM | RPMI-8226 > 100 µM | SNB-75 > 100 µM

COc1cc(C(=O)O)cc2c1[nH]c1ccccc12 [MUKOEIC ACID]
inactive: Malme-3M > 25 µM | SN12C > 25 µM | UO-31 > 25 µM | SW-620 > 25 µM | SF-539 > 25 µM | HCC 2998 > 25 µM | MOLT-4 > 25 µM | SK-OV-3 > 25 µM | TK-10 > 25 µM | SK-MEL-2 > 25 µM | DMS-114 > 25 µM | M19-MEL > 25 µM | OVCAR-5 > 25 µM | RPMI-8226 > 25 µM
